The results in this text go back to patent US4455312A.

Data set [1] in a line: in vivo. As for the experimental part:
(§1) 2-(o-carboxyphenylamino)-6-H-pyrimido(2,1-b)-quinazolone-6 and its derivatives were tested for acute toxicity.
(§2) Acute toxicity of 2-(o-carboxyphenylamino)-6H-pyrimido(2,1-b)-quinazolone-6and its derivatives was determined in intra-abdominal and peroral administration; for cats in peroral administration. […] The statistical analysis of obtained data was carried out in accordance with the method of Litchfield, Wilcockson and Van der Waerden.

The nature of data set [2]: Acute toxicity in rabbits (LD50). As to conditions: rabbit, in vivo, ip, rabbits, intra-abdominal, Van der Waerden. The procedure:
as §1, §2

Data set [3] in a line: Acute toxicity in cats (LD50). As to conditions: cat, in vivo, po. The procedure:
as §1, §2

The subject of data set [4] is rats. As to the kind of experiment: in vivo. To be noted: rat, 168 h. As for the experimental part:
as §1, §2

Data set [5] relates to white mice. As to the kind of experiment: in vivo. As to conditions: mouse, 168 h. The procedure: as §1, §2
Data set [6] concerns rabbits. Nature of the data set: Acute toxicity in rabbits (LD50). As to conditions: rabbit, in vivo, 10080 min. As for the experimental part:
as §1, §2

Data set [7] relates to formalin edema of a foot in the rat. As to conditions: for other symptoms of inflammation (hyperemia, painfulness) and formation of necrotic foci: formalin inflammation. As for the experimental part: (§3) The growth of foot endema in the rat was registered in dynamics after each hour from the moment of subplantar administration of a stimulus during 5 hours. Percentage of inhibition of the foor emeda in the rat was calculated from the following formula: [formula] where
(§4) Vk is the volume of a control edematic foot minus the initial volume of the same foot prior to edema;
(§5) Vo is the volume of the tested edematic foot minus the initial volume of the same foot prior to edema.

Data set [8] concerns carrageenin edema. The procedure: as §3, §4, §5
A carrageenin edema was induced by subplantar administration in rats of 0.1 ml 1% solution of carrageenin (polysaccharide prepared from Iceland or pearl moss).

In data set [9] the test system is cotton granuloma. Nature of the data set: whole plant or invertebrate. The text has this:
The term "cotton granuloma" means hereinafter the formation of a granular-fibrous tissue around cotton balls implanted into experimental animals.

Data set [10] deals with threshold of pain sensitivity in contact-heat stimulation.
The test system of data set [11] is pyrogenal fever. As to the kind of experiment: Antipyretic effect in pyrogenal fever. To be noted: rats.
Experimental: Antipyretic effect of 2-(o-carboxyphenylamino)-6H-pyrimido(2,1-b)-quinazolone-6 and its derivatives were investigated in rats suffering from pyrogenal fever. Maximum decrease in the temperature (degrees) was determined.
Data set [12] deals with ovalbumin edema. As to the kind of experiment: Ovalbumin edema of rat foot. Type of data set: in vivo, rats. As to conditions: 1/10 LD50 intra-abdominal. The procedure:
An ovalbumin edema was induced by subplantar administration in rats of egg albumin (0.1 ml per foot). The edema developed very intensely, i.e. reached the maximum magnitude (191%) as soon as 1 hour following the injection of ovalbumin, and completely disappeared by the end of the day.
The preparations under studies were administered in the given investigations in a dose corresponding to 1/10LD50 for the rats in the intra-abdominal administration.

Data set [13] is described as follows: Solubility. The class given is physicochemical.
Setting [14] is: rat, in vivo, ip, hydrochloride.
Setting [15] is: read-out: Percentage of inhibition (cotton granuloma).

Counter-ions that a name gives are not always drawn. Like-named read-outs stand apart in the source and are kept apart here.

Broadly, the LD50 is the dose at which mortality reaches 50%. With `O=C(O)c1ccccc1Nc1ccn2c(=O)c3ccccc3nc2n1`, the 50% lethal dose (LD50) at 168 h in [1] (mouse, ip) is 1050 mg/kg; in data set [1] (mouse, po), 3400 mg/kg; in [1] (rat, ip), 980 mg/kg; in data set [1] (rat, po), 3800 mg/kg; in data set [2] it was 1750 mg/kg; in data set [3], 5000 mg/kg.
Compound `COC(=O)c1ccccc1Nc1ccn2c(=O)c3ccccc3nc2n1` registered an LD50 at 168 h in data set [1] (mouse, ip) of 1160 mg/kg.
In the case of `O=C(O)c1ccccc1Nc1ccn2c(=O)c3ccccc3nc2n1` [2-(o-carboxyphenylamino)6H-pyrimido(2,1-b)-quinazolone-6 hydrochloride], the LD50 in data set [4] (ip) is listed as 980 mg/kg; in data set [4] (po), 3800 mg/kg; in [5] (ip), 1050 mg/kg; in data set [5] (po), 3400 mg/kg; in data set [6] (ip), 1750 mg/kg; in data set [6] (po, hydrochloride) it was 500 mg/kg. Besides, the “Percentage of inhibition (formalin edema)” value is given as 31% in [7] (5 mg/kg intra-abdominal), 50% in data set [7] (10 mg/kg intra-abdominal), 57% in data set [7] (49 mg/kg intra-abdominal) and 71% in [7] (98 mg/kg intra-abdominal). The “depression of formalin edema of a foot in the rat (in words)” value in [7] (comparison of preparations) was “the most actively depressed”. The “Therapeutic index (formalin edema)” value in [7] (setting [14]) was determined as 61.2. Moreover, the “Percentage of inhibition (carrageenin edema)” value in data set [8] (25 mg/kg intra-abdominal) is reported as 12%; in [8] (49 mg/kg intra-abdominal), 26%; in data set [8] (98 mg/kg intra-abdominal) it was 55%. In addition, the “Therapeutic index (carrageenin edema)” value in data set [8] (setting [14]) amounted to 10.9. The results for the “Percentage of inhibition (cotton granuloma)” value in [9] (48 mg/kg), in data set [9] (95 mg/kg) and in data set [9] (190 mg/kg) were 18%, 24% and 52%, respectively. The “antiproliferative effect (in words)” value in data set [9] (cotton granuloma) is “the most effective among the given preparations”. Besides, in [9] (cotton granuloma), the “pharmacotherapeutic width of effect relative to mephenamine acid, sodium salicylate, and phenylbutazone” value is listed as “three times”. In addition, the “Therapeutic index (cotton granuloma)” value in [9] (in vivo, hydrochloride) was found to be 22.3. Also, the “Increase in latent period of pain reaction in mice” value (“Increase in latent period” below) is recorded as 31% in data set [10] (52 mg/kg, hydrochloride); 52% in data set [10] (105 mg/kg, hydrochloride); 62% in [10] (157 mg/kg, hydrochloride). Besides, the “Therapeutic index (analgetic activity)” value in data set [10] (mouse, in vivo, hydrochloride) was 11.0. The “Antipyretic effect (maximum decrease in temperature)” value in data set [11] (5% of LD50 (hydrochloride's dose not printed separately)) was determined as 1.4 °C.
With `CNC(=O)c1ccccc1Nc1ccn2c(=O)c3ccccc3nc2n1` [2-(o-methylcarbamidephenylamino)-6H-pyrimido(2,1-b)-quinazolone-6], in data set [1] (mouse, ip), the LD50 at 168 h stood at 3000 mg/kg.
Regarding `CC(C)Cc1ccc(C(C)C(=O)O)cc1` (centres unmarked) [Bruphen, 2-(para-isobutylphenyl)-propionic acid], the “Antipyretic effect (maximum decrease in temperature)” value in data set [11] (70% of LD50) stood at 1.3 °C.
Still for that read-out and setting: with `COc1ccc2c(c1)c(CC(=O)O)c(C)n2C(=O)c1ccc(Cl)cc1` [Indomethacin, 1-(para-chlorobenzoyl)5-methoxy-2-methyl-indole-3-acetic acid] the figure was 0.7 °C.
Take `Cc1cccc(Nc2ccccc2C(=O)O)c1C` [Mephenamine acid, N--(2,3-dimethylphenyl) anthranilic acid]: the “Percentage of inhibition (formalin edema)” value in data set [7] (9 mg/kg intra-abdominal) came out at 22%; in [7] (18 mg/kg intra-abdominal) it was 24%; in data set [7] (36 mg/kg intra-abdominal) it was 31%; in data set [7] (72 mg/kg intra-abdominal), 33%. Further, the “other symptoms of inflammation (hyperemia, painfulness) and formation of necrotic foci” value in [7] was “almost noncharacteristic”. For the same compound, the “Percentage of inhibition (carrageenin edema)” value is 33% in [8] (25 mg/kg intra-abdominal), 44% in data set [8] (50 mg/kg intra-abdominal) and 50% in data set [8] (100 mg/kg intra-abdominal). The “antiproliferative effect (in words)” value in data set [9] (cotton granuloma) is listed as “the most effective among the given preparations”. Moreover, the “Increase in latent period” value in data set [10] (3.5 mg/kg) is on record as 18%; in [10] (7.0 mg/kg), 36%; in data set [10] (15 mg/kg) it was 43%. The “analgetic activity (in words)” value in data set [10] (contact-heat stimulation) was “possessed the most expressed analgetic effect”. In data set [11] (70% of LD50), the “Antipyretic effect (maximum decrease in temperature)” value turned out to be 1.2 °C.
For the compound `CCCCC1C(=O)N(c2ccccc2)N(c2ccccc2)C1=O` [Phenylbutazone, 1,2-diphenyl-4-butyl pyrazolidine-dion-3,5], the entries for the “Percentage of inhibition (formalin edema)” value in [7] (21 mg/kg intra-abdominal), in data set [7] (42 mg/kg intra-abdominal) and in data set [7] (82 mg/kg intra-abdominal) were 17%, 40% and 51%, respectively. Besides, the “Percentage of inhibition (carrageenin edema)” value in data set [8] (21 mg/kg intra-abdominal) is given as 27%; in data set [8] (42 mg/kg intra-abdominal), 44%; in [8] (84 mg/kg intra-abdominal), 51%. Moreover, the “antiexudative / antiinflammatory effect in ovalbumin edema (in words)” value in [12] was “did not produce antiedematic effect”. Also, the figures for the “Increase in latent period” value in data set [10] (25 mg/kg), in [10] (50 mg/kg) and in [10] (100 mg/kg) were 8%, 43% and 92%, respectively.
The inhibition is how much of the control response was suppressed. For the compound `O=C(O)c1ccccc1O` [Sodium salicylate, 6-oxybenzoic acid, sodium salt], the “Percentage of inhibition (formalin edema)” value in data set [7] (65 mg/kg intra-abdominal) stood at 14%; in data set [7] (130 mg/kg intra-abdominal), 24%; in data set [7] (260 mg/kg intra-abdominal), 41%. Further, in data set [7] (LD50/ED50, intra-abdominal), the “Therapeutic index (formalin edema)” value is recorded as 1.8. Moreover, in data set [7], the “other symptoms of inflammation (hyperemia, painfulness) and formation of necrotic foci” value is given as “almost noncharacteristic”. Moreover, the results for the “Percentage of inhibition (carrageenin edema)” value in [8] (65 mg/kg intra-abdominal), in data set [8] (90 mg/kg intra-abdominal) and in data set [8] (130 mg/kg intra-abdominal) were 14%, 32% and 56%, respectively. For the same compound, the “Therapeutic index (carrageenin edema)” value in data set [8] (LD50/ED50, intra-abdominal) was 5.6. For the same compound, the “Therapeutic index (cotton granuloma)” value in data set [9] (LD50/ED50) was determined as 7.27. Moreover, the inhibition at 60 mg/kg in [9] (setting [15]) amounted to 8%. Further, the inhibition at 80 mg/kg in [9] (setting [15]) stood at 20%. The inhibition at 160 mg/kg in [9] (setting [15]) was 36%. Moreover, the inhibition at 240 mg/kg in data set [9] (setting [15]) came out at 52%. Moreover, the “Increase in latent period” value in data set [10] (32 mg/kg) is 28%; in data set [10] (65 mg/kg), 38%; in data set [10] (130 mg/kg) it was 59%. In addition, the “Therapeutic index (analgetic activity)” value in data set [10] (LD50/ED50, contact-heat stimulation) was 5.9.
As for `O=C(O)c1ccccc1Nc1ccn2c(=O)c3ccccc3nc2n1` [ethanol ammonium salt of 2-(o-carboxyphenylamino)-6H-pyrimid], the “solubility (in words)” value in data set [13] is listed as “soluble in water”.
